Measurements published in patent publication US20260092083A1, “VANCOMYCIN DERIVATIVES WITH SIDEROPHORE MODIFICATION AS NOVEL REPURPOSED ANTIBIOTICS TO COMBAT GRAM-NEGATIVE BACTERIAL INFECTION” (priority 2023, published 2026).
Values after ≈ are worked out from the molar mass of the structure shown.

Key:
Type in all cases: cell-based
E. coli (tolC) JW5503-1 = assay: Broth microdilution MIC, E. coli efflux-deficient (tolC); details: Escherichia coli, read-out: MIC (μg/mL) Gram-negative EC Efflux
Procedure: (§1) The test compounds including vancomycin hydrochloride were supplied as a 6.4 mg/mL solution in 100% dimethyl sulfoxide (DMSO) aliquoted into individual wells of a 96-well plate (50 μL per well). […] Standardized inocula were added to the MIC test plates, which were incubated for the prescribed times at 35° C. The N. gonorrhoeae strain was incubated in an atmosphere containing 5% CO2.
(§2) The final optical density of each well at 600 nm was measured using a Tecan Spark plate reader. The compound concentration versus OD600 data were then curve fit using custom software. An MIC value was defined as the lowest compound concentration that led to an OD600 value≤0.15 for the E. coli, K. pneumoniae, P. aeruginosa, A. baumannii, or S. aureus strains. For the N. gonorrhoeae strain, an OD600 value≤0.19 was used as a cutoff to define an MIC value; this higher cut-off value was required because the N. gonorrhoeae MIC plates were covered with plastic seals that increased the background OD600 value.
(§3) JMI Laboratories followed current CLSI quality assurance practices when performing the susceptibility tests. MIC values were validated by concurrently testing the CLSI-recommended ATCC QC reference strains S. aureus ATCC 29213 and K. pneumoniae ATCC 700603. The inoculum density during susceptibility testing was monitored by bacterial colony counts. Where applicable, QC ranges for tested reference strains were those ranges approved or published by CLSI for testing in CAMHB. […] Importantly, the CLSI reference method for testing N. gonorrhoeae is the agar dilution MIC method, which was not used here. Thus, CLSI MIC QC ranges for N. gonorrhoeae could not be applied to the antimicrobials studied here.
(§4) Abbreviations: EC, E. coli (wild-type) BW25113; EC efflux^−, E. coli (tolC) JW5503-1; KPN, K. pneumoniae ATCC 700603; PSA, P. aeruginosa PAO1; PSA efflux^−, P. aeruginosa (multi-pump-gene mutant) PAM1626; ACB, A. baumannii JMI #1186154; GC, N. gonorrhoeae WHO-Z; SA, S. aureus ATCC 29213. Broth microdilution MIC values were measured in iron-depleted CAMHB for all strains except for GC, which was tested in fastidious broth.

S. aureus ATCC 29213 = assay: Broth microdilution MIC, S. aureus; details: Staphylococcus aureus, ATCC29213, iron-depleted CAMHB, OD600 ≤0.15, read-out: MIC (μg/mL) Gram positive SA
Procedure: as §1, §2, §3, §4

[1] = tested on: E. coli (wild-type) BW25113; assay: Broth microdilution MIC, E. coli wild-type; details: Escherichia coli, iron-depleted CAMHB, OD600 ≤0.15, read-out: MIC (μg/mL) Gram-negative EC
Procedure: as §1, §2, §3, §4

[2] = tested on: K. pneumoniae ATCC 700603; assay: Broth microdilution MIC, K. pneumoniae; details: Klebsiella pneumoniae, ATCC700603, read-out: MIC (μg/mL) Gram-negative KPN
Procedure: as §1, §2, §3, §4

[3] = tested on: A. baumannii JMI #1186154; assay: Broth microdilution MIC, A. baumannii; details: Acinetobacter baumannii, iron-depleted CAMHB, OD600 ≤0.15, read-out: MIC (μg/mL) Gram-negative ACB
Procedure: as §1, §2, §3, §4

N. gonorrhoeae WHO-Z = assay: Broth microdilution MIC, N. gonorrhoeae; details: Neisseria gonorrhoeae, read-out: MIC (μg/mL) Gram-negative GC
Procedure: as §1, §2, §3, §4

[4] = tested on: P. aeruginosa (multi-pump-gene mutant) PAM1626; assay: Broth microdilution MIC, P. aeruginosa efflux-deficient; details: Pseudomonas aeruginosa, read-out: MIC (μg/mL) Gram-negative PSA Efflux
Procedure: as §1, §2, §3, §4

P. aeruginosa PAO1 = assay: Broth microdilution MIC, P. aeruginosa; details: Pseudomonas aeruginosa, iron-depleted CAMHB, OD600 ≤0.15, read-out: MIC (μg/mL) Gram-negative PSA
Procedure: as §1, §2, §3, §4

SMILES	MIC (E. coli (tolC) JW5503-1) [µg/mL]	MIC (S. aureus ATCC 29213) [µg/mL]	MIC [1] [µg/mL]	MIC [2] [µg/mL]	MIC [3] [µg/mL]	MIC (N. gonorrhoeae WHO-Z) [µg/mL]	MIC [4] [µg/mL]	MIC (P. aeruginosa PAO1) [µg/mL]
CNC(CC(C)C)C(=O)N[C@H]1C(=O)N[C@@H](CC(N)=O)C(=O)N[C@H]2C(=O)N[C@H]3C(=O)N[C@H](C(=O)N[C@@H](C(=O)NCCNC(=O)c4ccc(O)c(O)c4Cl)c4cc(O)cc(O)c4-c4cc3ccc4O)[C@H](O)c3ccc(c(Cl)c3)Oc3cc2cc(c3OC2O[C@H](CO)C(O)C(O)[C@H]2O[C@H]2CC(C)(N)[C@H](O)C(C)O2)Oc2ccc(cc2Cl)[C@H]1O (stereo in doubt) [Compound 3]	> 64	4 (≈ 2.41 µM)	16 (≈ 9.63 µM)	> 64	2 (≈ 1.2 µM)	> 64	> 64	> 64
CNC(CC(C)C)C(=O)N[C@H]1C(=O)N[C@@H](CC(N)=O)C(=O)N[C@H]2C(=O)N[C@H]3C(=O)N[C@H](C(=O)N[C@@H](C(=O)NCCOCCNC(=O)c4ccc(O)c(O)c4Cl)c4cc(O)cc(O)c4-c4cc3ccc4O)[C@H](O)c3ccc(c(Cl)c3)Oc3cc2cc(c3OC2O[C@H](CO)C(O)C(O)[C@H]2O[C@H]2CC(C)(N)[C@H](O)C(C)O2)Oc2ccc(cc2Cl)[C@H]1O (stereo in doubt) [Compound 10]	> 64	4 (≈ 2.34 µM)	16 (≈ 9.38 µM)	> 64	2 (≈ 1.17 µM)	> 64	> 64	> 64
CN[C@H](CC(C)C)C(=O)N[C@H]1C(=O)N[C@@H](CC(N)=O)C(=O)N[C@H]2C(=O)N[C@H]3C(=O)N[C@H](C(=O)N[C@H](C(=O)NCCOCCOCCNC(=O)c4ccc(O)c(O)c4Cl)c4cc(O)cc(O)c4-c4cc3ccc4O)[C@H](O)c3ccc(c(Cl)c3)Oc3cc2cc(c3O[C@@H]2O[C@H](CO)C(O)C(O)[C@H]2O[C@H]2CC(C)(N)[C@H](O)[C@H](C)O2)Oc2ccc(cc2Cl)[C@H]1O (stereo in doubt) [Compound 11]	> 64	4 (≈ 2.29 µM)	64 (≈ 36.6 µM)	> 64	1 (≈ 0.571 µM)	> 64	> 64	> 64
CNC(CC(C)C)C(=O)N[C@H]1C(=O)N[C@@H](CC(N)=O)C(=O)N[C@H]2C(=O)N[C@H]3C(=O)N[C@H](C(=O)N[C@@H](C(=O)NCc4cn(CCNC(=O)c5cccc(O)c5O)nn4)c4cc(O)cc(O)c4-c4cc3ccc4O)[C@H](O)c3ccc(c(Cl)c3)Oc3cc2cc(c3OC2O[C@H](CO)C(O)C(O)[C@H]2O[C@H]2CC(C)(N)[C@H](O)C(C)O2)Oc2ccc(cc2Cl)[C@H]1O (stereo in doubt) [Compound 14]	> 64	4 (≈ 2.34 µM)	> 64	> 64	16 (≈ 9.36 µM)	> 64	> 64	> 64
CN[C@H](CC(C)C)C(=O)N[C@H]1C(=O)N[C@@H](CC(N)=O)C(=O)N[C@H]2C(=O)N[C@H]3C(=O)N[C@H](C(=O)N[C@H](C(=O)NCCOCCOCCNS(=O)(=O)c4ccc(O)c(O)c4)c4cc(O)cc(O)c4-c4cc3ccc4O)[C@H](O)c3ccc(c(Cl)c3)Oc3cc2cc(c3O[C@@H]2O[C@H](CO)C(O)C(O)[C@H]2O[C@H]2CC(C)(N)[C@H](O)[C@H](C)O2)Oc2ccc(cc2Cl)[C@H]1O (stereo in doubt) [Compound 18]	> 64	4 (≈ 2.28 µM)	64 (≈ 36.5 µM)	> 64	1 (≈ 0.571 µM)	> 64	> 64	> 64
CNC(CC(C)C)C(=O)NC1C(=O)NC(CC(N)=O)C(=O)NC2C(=O)NC3C(=O)NC(C(=O)N[C@H](C(=O)NCCCNC(=O)c4cc(=O)c(O)c[nH]4)c4cc(O)cc(O)c4-c4cc3ccc4O)C(O)c3ccc(c(Cl)c3)Oc3cc2cc(c3OC2OC(CO)C(O)C(O)C2OC2CC(C)(N)C(O)C(C)O2)Oc2ccc(cc2Cl)C1O (stereo in doubt) [Compound 20]	64 (≈ 39 µM)	32 (≈ 19.5 µM)	32 (≈ 19.5 µM)	> 64	32 (≈ 19.5 µM)	> 64	64 (≈ 39 µM)	64 (≈ 39 µM)
